Laboratory results as given in patent US10660877B2 (BRISTOL-MYERS SQUIBB COMPANY, priority 2016, dated 2020).
Read-outs that look alike come from different tables or passages of the source.

Tests used:
human TLR8 = human TLR8 (Homo sapiens (Human), UniProt Q9NR97); experiment: TLR8 inhibition reporter assay (HEK-Blue cells, SEAP reporter, R848 stimulation);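 also: compounds tested from 0.05 nM to 50 µM, 22 h at 37 °C, SEAP measured with HEK-Blue Detection, inhibition relative to agonist plus DMSO versus a known inhibitor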
Sequence of human TLR8 (Q9NR97 27-1041): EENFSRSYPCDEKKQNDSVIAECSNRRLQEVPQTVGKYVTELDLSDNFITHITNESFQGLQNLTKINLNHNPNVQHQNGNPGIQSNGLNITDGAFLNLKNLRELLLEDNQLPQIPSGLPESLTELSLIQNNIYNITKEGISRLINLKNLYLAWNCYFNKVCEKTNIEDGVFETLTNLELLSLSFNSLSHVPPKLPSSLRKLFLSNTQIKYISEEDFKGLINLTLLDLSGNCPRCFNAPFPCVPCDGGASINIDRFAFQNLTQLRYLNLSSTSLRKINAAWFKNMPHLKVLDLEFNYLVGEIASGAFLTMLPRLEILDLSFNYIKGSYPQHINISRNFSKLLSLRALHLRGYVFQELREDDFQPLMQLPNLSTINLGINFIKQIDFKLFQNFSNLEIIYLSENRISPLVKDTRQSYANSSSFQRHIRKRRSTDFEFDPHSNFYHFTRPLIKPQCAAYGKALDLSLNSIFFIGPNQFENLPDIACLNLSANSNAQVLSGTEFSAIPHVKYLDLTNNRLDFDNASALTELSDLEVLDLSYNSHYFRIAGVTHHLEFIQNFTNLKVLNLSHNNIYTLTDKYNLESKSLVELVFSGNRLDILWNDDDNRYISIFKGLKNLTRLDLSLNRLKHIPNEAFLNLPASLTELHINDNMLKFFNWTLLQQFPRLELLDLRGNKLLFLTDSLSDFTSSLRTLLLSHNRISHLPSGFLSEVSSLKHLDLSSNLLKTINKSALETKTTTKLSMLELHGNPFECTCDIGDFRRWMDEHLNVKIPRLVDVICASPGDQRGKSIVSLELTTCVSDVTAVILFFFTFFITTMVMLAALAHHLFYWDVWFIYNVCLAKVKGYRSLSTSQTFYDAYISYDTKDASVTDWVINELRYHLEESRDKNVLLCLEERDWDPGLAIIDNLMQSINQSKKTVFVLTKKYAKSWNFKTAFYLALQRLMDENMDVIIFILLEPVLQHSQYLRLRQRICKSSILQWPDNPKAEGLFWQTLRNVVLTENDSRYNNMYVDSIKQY

human TLR9 = human TLR9 (Homo sapiens (Human), UniProt Q9NR96); experiment: TLR9 inhibition reporter assay (HEK-Blue cells, SEAP reporter, ODN2006 stimulation);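 also: compounds tested over 0.05 nM to 50 µM, 22 h incubation, inhibition taken as SEAP signal drop from agonist plus DMSO wells toward a known inhibitor control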
Sequence of human TLR9 (Q9NR96 26-1032): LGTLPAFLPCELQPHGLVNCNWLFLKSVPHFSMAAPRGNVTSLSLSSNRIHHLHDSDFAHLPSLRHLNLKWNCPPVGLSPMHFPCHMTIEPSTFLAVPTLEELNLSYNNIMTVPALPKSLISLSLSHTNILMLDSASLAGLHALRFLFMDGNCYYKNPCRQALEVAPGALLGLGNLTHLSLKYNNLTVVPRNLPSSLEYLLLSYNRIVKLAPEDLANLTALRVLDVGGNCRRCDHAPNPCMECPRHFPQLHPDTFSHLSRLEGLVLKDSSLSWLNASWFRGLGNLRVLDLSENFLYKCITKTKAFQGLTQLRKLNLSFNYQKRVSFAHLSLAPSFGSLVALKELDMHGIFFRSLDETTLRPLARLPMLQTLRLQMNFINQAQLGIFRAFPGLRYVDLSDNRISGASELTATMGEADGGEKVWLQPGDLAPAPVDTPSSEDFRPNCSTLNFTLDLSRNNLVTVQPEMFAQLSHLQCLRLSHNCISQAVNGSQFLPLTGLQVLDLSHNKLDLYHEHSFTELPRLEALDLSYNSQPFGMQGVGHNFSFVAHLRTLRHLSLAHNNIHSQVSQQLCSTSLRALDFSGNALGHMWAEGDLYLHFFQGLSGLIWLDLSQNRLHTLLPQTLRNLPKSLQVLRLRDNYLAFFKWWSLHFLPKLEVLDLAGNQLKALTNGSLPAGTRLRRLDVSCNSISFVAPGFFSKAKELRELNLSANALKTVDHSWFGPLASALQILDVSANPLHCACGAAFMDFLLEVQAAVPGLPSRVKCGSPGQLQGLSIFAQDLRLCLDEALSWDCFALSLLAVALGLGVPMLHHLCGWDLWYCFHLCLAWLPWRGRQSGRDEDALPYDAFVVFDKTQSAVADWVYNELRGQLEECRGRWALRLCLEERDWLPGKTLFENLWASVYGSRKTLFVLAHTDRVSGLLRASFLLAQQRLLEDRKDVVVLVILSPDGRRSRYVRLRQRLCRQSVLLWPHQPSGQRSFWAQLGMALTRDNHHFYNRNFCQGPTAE

human TLR7 = human TLR7 (Homo sapiens (Human), UniProt Q9NYK1); experiment: TLR7 inhibition reporter assay (HEK-Blue cells, SEAP reporter, gardiquimod stimulation); type: cell-based
Sequence of human TLR7 (Q9NYK1 27-1049): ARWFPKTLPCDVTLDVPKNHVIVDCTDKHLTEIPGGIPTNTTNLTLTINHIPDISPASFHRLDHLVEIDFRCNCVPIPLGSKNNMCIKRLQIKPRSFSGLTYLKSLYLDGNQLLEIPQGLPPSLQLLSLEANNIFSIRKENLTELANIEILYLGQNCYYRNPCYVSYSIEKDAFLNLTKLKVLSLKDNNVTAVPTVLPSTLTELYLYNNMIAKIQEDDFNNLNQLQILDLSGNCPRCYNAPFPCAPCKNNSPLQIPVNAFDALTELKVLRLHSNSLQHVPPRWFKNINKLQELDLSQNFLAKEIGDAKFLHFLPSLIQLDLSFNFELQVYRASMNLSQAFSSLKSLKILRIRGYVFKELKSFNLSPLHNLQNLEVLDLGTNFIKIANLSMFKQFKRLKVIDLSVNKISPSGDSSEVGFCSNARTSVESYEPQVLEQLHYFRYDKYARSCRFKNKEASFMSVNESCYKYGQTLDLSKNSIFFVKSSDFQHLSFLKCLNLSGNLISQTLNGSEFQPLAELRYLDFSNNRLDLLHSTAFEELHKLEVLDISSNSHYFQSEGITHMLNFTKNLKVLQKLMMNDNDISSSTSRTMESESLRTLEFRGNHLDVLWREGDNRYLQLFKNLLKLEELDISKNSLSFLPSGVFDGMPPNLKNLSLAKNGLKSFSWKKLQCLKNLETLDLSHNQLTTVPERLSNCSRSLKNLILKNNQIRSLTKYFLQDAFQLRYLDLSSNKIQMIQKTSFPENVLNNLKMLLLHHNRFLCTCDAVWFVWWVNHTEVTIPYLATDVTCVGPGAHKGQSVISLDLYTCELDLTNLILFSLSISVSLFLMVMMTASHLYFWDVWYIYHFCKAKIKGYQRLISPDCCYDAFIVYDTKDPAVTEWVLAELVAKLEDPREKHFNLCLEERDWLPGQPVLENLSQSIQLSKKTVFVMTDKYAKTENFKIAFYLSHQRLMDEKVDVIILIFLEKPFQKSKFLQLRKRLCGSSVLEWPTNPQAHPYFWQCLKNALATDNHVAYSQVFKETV

[1] = read-out: TLR8 IC50, HEK-Blue cells overexpressing human TLR8, R848 15.9 μM
[2] = read-out: TLR9 IC50, HEK-Blue cells overexpressing human TLR9, ODN2006 5 nM
[3] = HEK-Blue cells overexpressing human TLR7, gardiquimod 7.5 μM
[4] = read-out: TLR8 IC50, HEK-Blue cells, R848 15.9 μM
[5] = read-out: TLR9 IC50, HEK-Blue cells, ODN2006 5 nM
[6] = HEK-Blue cells, gardiquimod 7.5 μM

Structure (SMILES)	IC50 (human TLR8; [1]) [nM]	IC50 (human TLR9; [2]) [nM]	IC50 (human TLR7; [3]) [nM]	IC50 (human TLR8; [4]) [nM]	IC50 (human TLR9; [5]) [nM]	IC50 (human TLR7; [6]) [nM]	IC50 (human TLR8; TLR8 IC50, HEK-Blue cells overexpressing human TLR8, R848 15.9 μM) [nM]	IC50 (human TLR9; TLR9 IC50, HEK-Blue cells overexpressing human TLR9, ODN2006 5 nM) [nM]
Cc1cc(-c2[nH]c3ccc(C4CCN(C(=O)C5CCN(Cc6ccccc6)C5)CC4)cc3c2C(C)C)ccn1 (stereo not drawn) [Example 575, (1-benzylpyrrolidin-3-yl)(4-(3-isopropyl-2-(2-methylpyridin-4-yl)-1H-indol-5-yl)piperidin-1-yl)methanone]	18.5	1060	34					
Cc1cc(-c2[nH]c3ccc(C4CCN(S(=O)(=O)c5ccccc5)CC4)cc3c2C(C)C)ccn1 [Example 547, 3-isopropyl-2-(2-methylpyridin-4-yl)-5-(1-(phenylsulfonyl)piperidin-4-yl)-1H-indole]	1040	> 50000	333					
CC(C)c1c(-c2ccncc2)[nH]c2ccc(C3CCN(C4CCN(C)CC4)CC3)cc12 [Example 525, 3-isopropyl-5-(1′-methyl-[1,4′-bipiperidin]-4-yl)-2-(pyridin-4-yl)-1H-indole]	6	190	44.3					
CCOc1cc(-c2[nH]c3ccc(C4CCN(C5CCN(CC(C)C)CC5)CC4)cc3c2CC)ccn1 [Example 768, 2-(2-ethoxypyridin-4-yl)-3-ethyl-5-(1′-isobutyl-[1,4′-bipiperidin]-4-yl)-1H-indole]	1190	1280	7220					
Cc1cc(-c2[nH]c3ccc(C4CCN(C5COC5)CC4)cc3c2C(C)C)c(F)c(C)n1 [Example 729, 2-(3-fluoro-2,6-dimethylpyridin-4-yl)-3-isopropyl-5-(1-(oxetan-3-yl)piperidin-4-yl)-1H-indole]	33.6	3620	10.1					
CCc1c(-c2ccnc(OC)c2)[nH]c2ccc(C3CCN(C4CCN(C(C)C)CC4)CC3)cc12 [Example 786, 3-ethyl-5-(1′-isopropyl-[1,4′-bipiperidin]-4-yl)-2-(2-methoxypyridin-4-yl)-1H-indole]	50.4	206	309					
Cc1cc(-c2[nH]c3ccc(C4CCN(S(=O)(=O)CC(C)C)CC4)cc3c2C(C)C)ccn1 [Example 548, 5-(1-(isobutylsulfonyl)piperidin-4-yl)-3-isopropyl-2-(2-methylpyridin-4-yl)-1H-indole]	700	> 50000	336					
Cc1cc(-c2[nH]c3ccc(C4CCN(C5CCNC(C)C5)CC4)cc3c2C(C)C)ccn1 (stereo not drawn) [Example 708, 3-isopropyl-5-(2′-methyl-[1,4′-bipiperidin]-4-yl)-2-(2-methylpyridin-4-yl)-1H-indole]	6.3	492	8.1					
COc1cc(-c2[nH]c3ccc(C4CCN(C5CCN(CC(C)C)CC5)CC4)cc3c2C(C)C)ccn1 [Example 803, 5-(1′-isobutyl-[1,4′-bipiperidin]-4-yl)-3-isopropyl-2-(2-methoxypyridin-4-yl)-1H-indole]	333	986	79.7					
Cc1cnc(N)cc1-c1[nH]c2ccc(C3CCNCC3)cc2c1C(C)C [Example 9, 4-(3-isopropyl-5-(piperidin-4-yl)-1H-indol-2-yl)-5-methylpyridin-2-amine]	22.1	562	75.1					
Cc1cc(-c2[nH]c3ccc(C4CCN(C(=O)CCC5CCNCC5)CC4)cc3c2C(C)C)ccn1 [Example 568, 1-(4-(3-isopropyl-2-(2-methylpyridin-4-yl)-1H-indol-5-yl)piperidin-1-yl)-3-(piperidin-4-yl)propan-1-one]	13.6	572	11.9					
CC(C)c1c(-c2ccncc2)[nH]c2ccc(C3CCN(C(=O)CN(C)C)CC3)cc12 [Example 524, 2-(dimethylamino)-1-(4-(3-isopropyl-2-(pyridin-4-yl)-1H-indol-5-yl)piperidin-1-yl) ethan-1-one]	29.2	2800	33.6					
CCN1CCC(N2CCC(c3ccc4[nH]c(-c5ccnc(OC)c5)c(C(C)C)c4c3)CC2)CC1 [Example 801, 5-(1′-ethyl-[1,4′-bipiperidin]-4-yl)-3-isopropyl-2-(2-methoxypyridin-4-yl)-1H-indole]	218	740	561					
Cc1cc(-c2[nH]c3ccc(C4CCN(C(=O)[C@@H](N)CCCN)CC4)cc3c2C(C)C)ccn1 [Example 577, (S)-2,5-diamino-1-(4-(3-isopropyl-2-(2-methylpyridin-4-yl)-1H-indol-5-yl)piperidin-1-yl)pentan-1-one]	58.4	8130	121					

The remaining lines, values ahead:

IC50 (human TLR8; [1]) [nM]	IC50 (human TLR9; [2]) [nM]	IC50 (human TLR7; [3]) [nM]	IC50 (human TLR8; [4]) [nM]	IC50 (human TLR9; [5]) [nM]	IC50 (human TLR7; [6]) [nM]	IC50 (human TLR8; TLR8 IC50, HEK-Blue cells overexpressing human TLR8, R848 15.9 μM) [nM]	IC50 (human TLR9; TLR9 IC50, HEK-Blue cells overexpressing human TLR9, ODN2006 5 nM) [nM]	Structure (SMILES)
385	34100	99.2						Cc1cc(-c2[nH]c3ccc(C4CCN(C(=O)C(C)(C)C)CC4)cc3c2C(C)C)ccn1 [Example 601, 1-(4-(3-isopropyl-2-(2-methylpyridin-4-yl)-1H-indol-5-yl)piperidin-1-yl)-2,2-dimethylpropan-1-one]
15.8	795	4						Cc1cc(-c2[nH]c3ccc(C4CCN(C(=O)CNC5(C)CC5)CC4)cc3c2C(C)C)cc(C)n1 [Example 360, 1-(4-(2-(2,6-dimethylpyridin-4-yl)-3-isopropyl-1H-indol-5-yl)piperidin-1-yl)-2-((1-methylcyclopropyl)amino)ethan-1-one]
4.2	999	3.7						COCCCN1CCC(c2ccc3[nH]c(-c4cc(C)nc(C)c4)c(C(C)C)c3c2)CC1 [Example 330, 2-(2,6-dimethylpyridin-4-yl)-3-isopropyl-5-(1-(3-methoxypropyl)piperidin-4-yl)-1H-indole]
158	32000	24.7						Cc1cc(-c2[nH]c3ccc(C4CCN(C(=O)C(C)C)CC4)cc3c2C(C)C)ccn1 [Example 602, 1-(4-(3-isopropyl-2-(2-methylpyridin-4-yl)-1H-indol-5-yl)piperidin-1-yl)-2-methylpropan-1-one]
			3.7	794	16.3			Cc1cc(-c2[nH]c3ccc(C4CCN(CC5(C)COC5)CC4)cc3c2C(C)C)ccn1 [Example 867, 3-isopropyl-5-(1-((3-methyloxetan-3-yl)methyl)piperidin-4-yl)-2-(2-methylpyridin-4-yl)-1H-indole]
5.9	369	10.1						COc1ncc(CN2CCC(c3ccc4[nH]c(-c5cc(C)nc(C)c5)c(C(C)C)c4c3)CC2)cn1 [Example 430, 2-(2,6-dimethylpyridin-4-yl)-3-isopropyl-5-(1-((2-methoxypyrimidin-5-yl)methyl)piperidin-4-yl)-1H-indole]
2.6	76	0.6						CCN(CC)CCCN1CCC(c2ccc3[nH]c(-c4cc(C)nc(C)c4)c(C(C)C)c3c2)CC1 [Example 671, 3-(4-(2-(2,6-dimethylpyridin-4-yl)-3-isopropyl-1H-indol-5-yl)piperidin-1-yl)-N,N-diethylpropan-1-amine]
7.2	255	8.3						COc1ccc(CN2CCC(c3ccc4[nH]c(-c5cc(C)nc(C)c5)c(C(C)C)c4c3)CC2)cn1 [Example 424, 2-(2,6-dimethylpyridin-4-yl)-3-isopropyl-5-(1-((6-methoxypyridin-3-yl)methyl)piperidin-4-yl)-1H-indole]
		5.2				14.1	965	CCNC(=O)CN1CCC(c2ccc3[nH]c(-c4cc(C)nc(C)c4)c(C(C)C)c3c2)CC1 [Example 235, 2-(4-(2-(2,6-dimethylpyridin-4-yl)-3-isopropyl-1H-indol-5-yl)piperidin-1-yl)-N-ethylacetamide]
			28.3	1030	36.7			Cc1cc(-c2[nH]c3ccc(C4CCN(C(CF)CF)CC4)cc3c2C(C)C)ccn1 [Example 865, 5-(1-(1,3-difluoropropan-2-yl)piperidin-4-yl)-3-isopropyl-2-(2-methylpyridin-4-yl)-1H-indole]
124	3200	18.1						Cc1cc(-c2[nH]c3ccc(C4CCN(CC(=O)N5C[C@@H](C(F)(F)F)C[C@H]5CO)CC4)cc3c2C(C)C)cc(C)n1 [Example 291, 2-(4-(2-(2,6-dimethylpyridin-4-yl)-3-isopropyl-1H-indol-5-yl)piperidin-1-yl)-1-((2S,4S)-2-(hydroxymethyl)-4-(trifluoromethyl)pyrrolidin-1-yl)ethan-1-one]
25.9	656	5.4						Cc1cc(-c2[nH]c3ccc(C4CCN(C(=O)CN(C)CCF)CC4)cc3c2C(C)C)cc(C)n1 [Example 421, 1-(4-(2-(2,6-dimethylpyridin-4-yl)-3-isopropyl-1H-indol-5-yl)piperidin-1-yl)-2-((2-fluoroethyl)(methyl)amino)ethan-1-one]
13.2	601	7.5						Cc1cc(-c2[nH]c3ccc(C4CCN(C(C)CF)CC4)cc3c2C(C)C)cc(C)n1 (stereo not drawn) [Example 472, 2-(2,6-dimethylpyridin-4-yl)-5-(1-(1-fluoropropan-2-yl)piperidin-4-yl)-3-isopropyl-1H-indole]
104	36000	14.7						Cc1cc(-c2[nH]c3ccc(C4CCN(C(=O)CN5CC(F)(F)C5)CC4)cc3c2C(C)C)cc(C)n1 [Example 340, 2-(3,3-difluoroazetidin-1-yl)-1-(4-(2-(2,6-dimethylpyridin-4-yl)-3-isopropyl-1H-indol-5-yl)piperidin-1-yl)ethan-1-one]
